{"source": "patent US10376520B2", "about": "“Methods for the treatment of cardiovascular disorders” (Galapagos NV, priority 2015, dated 2019)", "test_system": "RA patients", "assay": "Total cholesterol determination, Study 1 (RA patients with inadequate response to methotrexate, add-on to MTX)", "format": "in vivo, human", "details": "for [total cholesterol] Mean CFB / [Total cholesterol] Median CFB: Study 1 24 weeks results; for [total cholesterol] Mean percentage CFB - 24 weeks results: continued 25 mg b.i.d (N = 69)", "method": "Double-blind, placebo-controlled add on study in subjects with moderately to severely active RA who have an inadequate response to methotrexate (MTX) (oral or parenteral).\n595 subjects randomized to one of 6 dose regimens of Compound 1 (dosed as a [Compound 1:HCl:3H2O]) (3 dose levels administered either once or twice daily) or placebo on top of each subject's stable dose of MTX.\nCompound 1 (dosed as a [Compound 1:HCl:3H2O]) is dosed for twelve weeks once daily (q.d.) (50 mg, 100 mg or 200 mg) or twice daily (b.i.d.) (25 mg, 50 mg or 100 mg); or placebo.\nAt Week 12, the subjects on placebo who have not achieved 20% improvement in swollen joint count (SJC66) and tender joint count (TJC68) are re-randomized automatically to receive Compound 1 (dosed as a [Compound 1:HCl:3H2O]) either at 100 mg q.d. or 50 mg b.i.d. doses in a blinded fashion; subjects on 50 mg q.d. who have not achieved 20% improvement in SJC66 and TJC68 will be assigned to 100 mg q.d. and subjects on 25 mg b.i.d. that have not achieved a 20% improvement in SJC66 and TJC68 will be assigned to 50 mg b.i.d. Subjects who switch treatment at week 12 are handled as if they discontinued at week 12 for the purpose of statistical analysis, whereas subjects in the other groups will maintain their randomized treatment until Week 24.\nThis method is based on the determination of Δ^4 cholestenone after enzymatic cleavage of the cholesterol ester by cholesterol esterase, conversion of cholesterol by cholesterol oxidase, and subsequent measurement by the Trinder reaction of the hydrogen peroxide formed (Allain et al., 1974).\nCholesterol esters are cleaved by the action of cholesterol esterase to yield free cholesterol and fatty acids. Cholesterol oxidase then catalyzes the oxidation of cholesterol to cholest-4-en-3-one and hydrogen peroxide. In the presence of peroxidase, the hydrogen peroxide formed effects the oxidative coupling of phenol and 4-aminophenazone to form a red quinone-imine dye. The color intensity of the dye formed is directly proportional to the cholesterol concentration. It is determined by measuring the increase in absorbance.\nHuman serum and plasma samples cholesterol determination was done on a Roche/Hitachi Cobas c 701/702 system which automatically calculate the analyte concentration of each sample.", "key": {"[1]": {"details": "placebo switched to 50 mg b.i.d at week 12, week 16"}, "[2]": {"details": "placebo switched to 50 mg b.i.d at week 12, week 20"}, "[3]": {"details": "placebo switched to 50 mg b.i.d at week 12, week 24"}}}
{"smiles": "O=C(Nc1nc2cccc(-c3ccc(CN4CCS(=O)(=O)CC4)cc3)n2n1)C1CC1", "note": "[Compound 1, cyclopropanecarboxylic acid {5-[4-(1,1-dioxo-thiomorpholin-4-ylmethyl)-phenyl]-[1,2,4]triazolo[1,5-a]pyridin-2yl}-amide]", "values": [{"measurement": "[total cholesterol] Mean CFB", "setting": "continued 100 mg b.i.d., week 2", "result": 0.36, "unit": "mmol/L"}, {"measurement": "[total cholesterol] Mean CFB", "setting": "continued 100 mg b.i.d., week 4", "result": 0.43, "unit": "mmol/L"}, {"measurement": "[total cholesterol] Mean CFB", "setting": "continued 100 mg b.i.d., week 8", "result": 0.64, "unit": "mmol/L"}, {"measurement": "[total cholesterol] Mean CFB", "setting": "continued 100 mg b.i.d., week 12", "result": 0.64, "unit": "mmol/L"}, {"measurement": "[total cholesterol] Mean CFB", "setting": "continued 100 mg b.i.d., week 16", "result": 0.56, "unit": "mmol/L"}, {"measurement": "[total cholesterol] Mean CFB", "setting": "continued 100 mg b.i.d., week 20", "result": 0.54, "unit": "mmol/L"}, {"measurement": "[total cholesterol] Mean CFB", "setting": "continued 100 mg b.i.d., week 24", "result": 0.66, "unit": "mmol/L"}, {"measurement": "[Total cholesterol] Median CFB", "setting": "continued 100 mg q.d., week 1", "result": 0.14, "unit": "mmol/L"}, {"measurement": "[total cholesterol] Mean CFB", "setting": "continued 100 mg q.d., week 1", "result": 0.15, "unit": "mmol/L"}, {"measurement": "[Total cholesterol] Median CFB", "setting": "continued 100 mg q.d., week 2", "result": 0.06, "unit": "mmol/L"}, {"measurement": "[total cholesterol] Mean CFB", "setting": "continued 100 mg q.d., week 2", "result": 0.10, "unit": "mmol/L"}, {"measurement": "[Total cholesterol] Median CFB", "setting": "continued 100 mg q.d., week 4", "result": 0.25, "unit": "mmol/L"}, {"measurement": "[total cholesterol] Mean CFB", "setting": "continued 100 mg q.d., week 4", "result": 0.23, "unit": "mmol/L"}, {"measurement": "[Total cholesterol] Median CFB", "setting": "continued 100 mg q.d., week 8", "result": 0.09, "unit": "mmol/L"}, {"measurement": "[total cholesterol] Mean CFB", "setting": "continued 100 mg q.d., week 8", "result": 0.14, "unit": "mmol/L"}, {"measurement": "[Total cholesterol] Median CFB", "setting": "continued 100 mg q.d., week 12", "result": 0.30, "unit": "mmol/L"}, {"measurement": "[total cholesterol] Mean CFB", "setting": "continued 100 mg q.d., week 12", "result": 0.23, "unit": "mmol/L"}, {"measurement": "[Total cholesterol] Median CFB", "setting": "continued 100 mg q.d., week 16", "result": 0.00, "unit": "mmol/L"}, {"measurement": "[total cholesterol] Mean CFB", "setting": "continued 100 mg q.d., week 16", "result": 0.06, "unit": "mmol/L"}, {"measurement": "[Total cholesterol] Median CFB", "setting": "continued 100 mg q.d., week 20", "result": 0.17, "unit": "mmol/L"}, {"measurement": "[total cholesterol] Mean CFB", "setting": "continued 100 mg q.d., week 20", "result": 0.13, "unit": "mmol/L"}, {"measurement": "[Total cholesterol] Median CFB", "setting": "continued 100 mg q.d., week 24", "result": 0.30, "unit": "mmol/L"}, {"measurement": "[total cholesterol] Mean CFB", "setting": "continued 100 mg q.d., week 24", "result": 0.21, "unit": "mmol/L"}, {"measurement": "[total cholesterol] Mean CFB", "setting": "continued 200 mg q.d., week 1", "result": 0.26, "unit": "mmol/L"}, {"measurement": "[total cholesterol] Mean CFB", "setting": "continued 200 mg q.d., week 2", "result": 0.29, "unit": "mmol/L"}, {"measurement": "[total cholesterol] Mean CFB", "setting": "continued 200 mg q.d., week 4", "result": 0.37, "unit": "mmol/L"}, {"measurement": "[total cholesterol] Mean CFB", "setting": "continued 200 mg q.d., week 8", "result": 0.44, "unit": "mmol/L"}, {"measurement": "[total cholesterol] Mean CFB", "setting": "continued 200 mg q.d., week 12", "result": 0.46, "unit": "mmol/L"}, {"measurement": "[total cholesterol] Mean CFB", "setting": "continued 200 mg q.d., week 16", "result": 0.37, "unit": "mmol/L"}, {"measurement": "[total cholesterol] Mean CFB", "setting": "continued 200 mg q.d., week 20", "result": 0.43, "unit": "mmol/L"}, {"measurement": "[Total cholesterol] Median CFB", "setting": "continued 200 mg q.d., week 24", "result": 0.37, "unit": "mmol/L"}, {"measurement": "[total cholesterol] Mean CFB", "setting": "continued 200 mg q.d., week 24", "result": 0.39, "unit": "mmol/L"}, {"measurement": "[total cholesterol] Mean CFB", "setting": "increased from 25 mg b.i.d. to 50 mg b.i.d at 12 weeks, week 1", "result": -0.05, "unit": "mmol/L"}, {"measurement": "[total cholesterol] Mean CFB", "setting": "increased from 25 mg b.i.d. to 50 mg b.i.d at 12 weeks, week 2", "result": -0.01, "unit": "mmol/L"}, {"measurement": "[total cholesterol] Mean CFB", "setting": "increased from 25 mg b.i.d. to 50 mg b.i.d at 12 weeks, week 4", "result": -0.26, "unit": "mmol/L"}, {"measurement": "[total cholesterol] Mean CFB", "setting": "increased from 25 mg b.i.d. to 50 mg b.i.d at 12 weeks, week 8", "result": -0.30, "unit": "mmol/L"}, {"measurement": "[total cholesterol] Mean CFB", "setting": "increased from 25 mg b.i.d. to 50 mg b.i.d at 12 weeks, week 12", "result": -0.13, "unit": "mmol/L"}, {"measurement": "[total cholesterol] Mean CFB", "setting": "increased from 25 mg b.i.d. to 50 mg b.i.d at 12 weeks, week 16", "result": 0.08, "unit": "mmol/L"}, {"measurement": "[total cholesterol] Mean CFB", "setting": "increased from 25 mg b.i.d. to 50 mg b.i.d at 12 weeks, week 20", "result": -0.44, "unit": "mmol/L"}, {"measurement": "[total cholesterol] Mean CFB", "setting": "increased from 25 mg b.i.d. to 50 mg b.i.d at 12 weeks, week 24", "result": -0.09, "unit": "mmol/L"}, {"measurement": "[total cholesterol] Mean CFB", "setting": "increased from 50 mg q.d. to 100 mg q.d. at 12 weeks, week 1", "result": 0.05, "unit": "mmol/L"}, {"measurement": "[total cholesterol] Mean CFB", "setting": "increased from 50 mg q.d. to 100 mg q.d. at 12 weeks, week 2", "result": 0.26, "unit": "mmol/L"}, {"measurement": "[total cholesterol] Mean CFB", "setting": "increased from 50 mg q.d. to 100 mg q.d. at 12 weeks, week 4", "result": 0.11, "unit": "mmol/L"}, {"measurement": "[total cholesterol] Mean CFB", "setting": "increased from 50 mg q.d. to 100 mg q.d. at 12 weeks, week 8", "result": 0.10, "unit": "mmol/L"}, {"measurement": "[total cholesterol] Mean CFB", "setting": "increased from 50 mg q.d. to 100 mg q.d. at 12 weeks, week 12", "result": 0.10, "unit": "mmol/L"}, {"measurement": "[total cholesterol] Mean CFB", "setting": "increased from 50 mg q.d. to 100 mg q.d. at 12 weeks, week 16", "result": 0.37, "unit": "mmol/L"}, {"measurement": "[total cholesterol] Mean CFB", "setting": "increased from 50 mg q.d. to 100 mg q.d. at 12 weeks, week 20", "result": 0.34, "unit": "mmol/L"}, {"measurement": "[total cholesterol] Mean CFB", "setting": "increased from 50 mg q.d. to 100 mg q.d. at 12 weeks, week 24", "result": 0.25, "unit": "mmol/L"}, {"measurement": "[Total cholesterol] Median CFB", "setting": "[1]", "result": 0.25, "unit": "mmol/L"}, {"measurement": "[total cholesterol] Mean CFB", "setting": "[1]", "result": 0.08, "unit": "mmol/L"}, {"measurement": "[Total cholesterol] Median CFB", "setting": "[2]", "result": 0.25, "unit": "mmol/L"}, {"measurement": "[total cholesterol] Mean CFB", "setting": "[2]", "result": 0.18, "unit": "mmol/L"}, {"measurement": "[Total cholesterol] Median CFB", "setting": "[3]", "result": 0.36, "unit": "mmol/L"}, {"measurement": "[total cholesterol] Mean CFB", "setting": "[3]", "result": 0.06, "unit": "mmol/L"}, {"measurement": "[total cholesterol] Mean CFB", "setting": "placebo switched to 100 mg q.d. at week 12, week 16", "result": -0.16, "unit": "mmol/L"}, {"measurement": "[total cholesterol] Mean CFB", "setting": "placebo switched to 100 mg q.d. at week 12, week 20", "result": -0.17, "unit": "mmol/L"}, {"measurement": "[total cholesterol] Mean CFB", "setting": "placebo switched to 100 mg q.d. at week 12, week 24", "result": -0.26, "unit": "mmol/L"}, {"measurement": "[total cholesterol] Mean percentage CFB - 24 weeks results", "setting": "week 1", "result": 2.56, "unit": "%"}, {"measurement": "[total cholesterol] Mean percentage CFB - 24 weeks results", "setting": "week 2", "result": 3.22, "unit": "%"}, {"measurement": "[total cholesterol] Mean percentage CFB - 24 weeks results", "setting": "week 4", "result": 4.05, "unit": "%"}, {"measurement": "[total cholesterol] Mean percentage CFB - 24 weeks results", "setting": "week 8", "result": 4.25, "unit": "%"}]}
